Blank lines part the entries; values can stand above or below the compound they belong to. The source made the active and inactive calls. No cut-off for these calls is given here. Where a SMILES comes first, the peptide text is derived from it. The star is where a group is joined. Cbz = O=C(OCc1ccccc1)*
Tests used:
[1] = biological target: T1, Estrogen receptor (Homo sapiens) (UniProt P03372); experiment: Induction of ERalpha degradation in human MCF7 cells assessed as decrease in ERalpha protein expression at 5 uM incubated for 24 hrs in presence of proteasome inhibitor MG132 by Western blot analysis; format: cell-based
T1 sequence (whole entry): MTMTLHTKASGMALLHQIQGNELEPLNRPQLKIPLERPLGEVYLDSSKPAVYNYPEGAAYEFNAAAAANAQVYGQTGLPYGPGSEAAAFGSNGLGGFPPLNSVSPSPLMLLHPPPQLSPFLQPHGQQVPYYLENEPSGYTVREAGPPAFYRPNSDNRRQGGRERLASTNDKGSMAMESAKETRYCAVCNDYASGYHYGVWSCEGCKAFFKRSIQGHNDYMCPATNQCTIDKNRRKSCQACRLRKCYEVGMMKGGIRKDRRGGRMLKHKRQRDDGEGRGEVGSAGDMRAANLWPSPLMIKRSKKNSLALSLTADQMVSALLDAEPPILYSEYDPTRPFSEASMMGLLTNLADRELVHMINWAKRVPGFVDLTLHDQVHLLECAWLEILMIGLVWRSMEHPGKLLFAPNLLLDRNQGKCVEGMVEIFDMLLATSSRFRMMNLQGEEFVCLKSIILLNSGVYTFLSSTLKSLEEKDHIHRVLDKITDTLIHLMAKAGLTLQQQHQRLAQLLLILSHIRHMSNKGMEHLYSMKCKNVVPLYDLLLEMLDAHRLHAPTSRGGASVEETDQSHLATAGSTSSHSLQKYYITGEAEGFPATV

[2] = biological target: T1, Estrogen receptor (Homo sapiens); experiment: Binding affinity to ERalpha (unknown origin) by competitive fluorometric receptor binding assay relative to estradiol
[3] = system: MCF7; experiment: Induction of apoptosis in human MCF7 cells assessed as late apoptotic cells at 5 uM incubated for 24 hrs by Annexin V-FITC/propidium iodide staining-based flow cytometric analysis (reference value: 8.73%); format: functional
[4] = biological target: Estrogen receptor beta (Homo sapiens) (UniProt Q92731); experiment: Binding affinity to ERbeta (unknown origin) by competitive fluorometric receptor binding assay relative to estradiol
Sequence of Estrogen receptor beta (Homo sapiens) (Q92731 whole entry): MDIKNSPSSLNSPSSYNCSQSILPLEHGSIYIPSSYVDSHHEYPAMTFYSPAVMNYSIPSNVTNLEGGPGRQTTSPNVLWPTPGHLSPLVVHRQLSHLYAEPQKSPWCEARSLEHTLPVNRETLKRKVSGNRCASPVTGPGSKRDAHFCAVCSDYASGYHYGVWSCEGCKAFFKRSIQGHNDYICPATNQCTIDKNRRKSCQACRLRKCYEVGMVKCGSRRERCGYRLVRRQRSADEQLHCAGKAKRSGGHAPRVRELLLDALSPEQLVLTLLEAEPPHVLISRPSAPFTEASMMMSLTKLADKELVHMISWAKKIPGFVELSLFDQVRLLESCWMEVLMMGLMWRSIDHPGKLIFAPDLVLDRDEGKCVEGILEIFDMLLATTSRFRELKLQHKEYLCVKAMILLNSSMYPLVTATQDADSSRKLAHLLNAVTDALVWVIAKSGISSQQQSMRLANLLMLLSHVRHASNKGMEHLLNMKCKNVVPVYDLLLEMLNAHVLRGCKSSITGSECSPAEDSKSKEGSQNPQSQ

[5] = system: MCF7; experiment: Induction of apoptosis in human MCF7 cells assessed as live cells at 5 uM incubated for 24 hrs by Annexin V-FITC/propidium iodide staining-based flow cytometric analysis (reference value: 85.37%); format: functional
[6] = system: MCF7; experiment: Induction of apoptosis in human MCF7 cells assessed as early apoptotic cells at 10 uM incubated for 24 hrs by Annexin V-FITC/propidium iodide staining-based flow cytometric analysis (reference value: 1.26%); format: functional
[7] = system: MCF7; experiment: Induction of apoptosis in human MCF7 cells assessed as live cells at 10 uM incubated for 24 hrs by Annexin V-FITC/propidium iodide staining-based flow cytometric analysis (reference value: 85.37%); format: functional
[8] = Half life in Sprague-Dawley rat at 3 mg/kg, iv administered via foot dorsal vein by LC-MS/MS analysis; format: ADME, organism-based; conditions: in vivo
[9] = system: MCF7; experiment: Induction of apoptosis in human MCF7 cells assessed as necrotic cells at 1 uM incubated for 24 hrs by Annexin V-FITC/propidium iodide staining-based flow cytometric analysis (reference value: 4.65%); format: functional
[10] = system: MCF7; experiment: Induction of apoptosis in human MCF7 cells assessed as live cells at 1 uM incubated for 24 hrs by Annexin V-FITC/propidium iodide staining-based flow cytometric analysis (reference value: 85.37%); format: functional
[11] = system: MCF7; experiment: Antiproliferative activity against human MCF7 cell incubated for 72 hrs by MTT assay; format: functional, cell-based; conditions: MCF7, 72 h
[12] = system: MCF7; experiment: Induction of apoptosis in human MCF7 cells assessed as necrotic cells at 5 uM incubated for 24 hrs by Annexin V-FITC/propidium iodide staining-based flow cytometric analysis (reference value: 4.65%); format: functional
[13] = biological target: T1, Estrogen receptor (Homo sapiens); experiment: Induction of ERalpha degradation in human MCF7 cells assessed as decrease in ERalpha protein expression at 0.5 uM incubated for 24 hrs by Western blot analysis; format: cell-based
[14] = Cmax in Sprague-Dawley rat at 3 mg/kg, iv administered via foot dorsal vein by LC-MS/MS analysis; format: ADME, organism-based; design: dose 3 mg/kg, route intravenous; conditions: in vivo
[15] = biological target: T1, Estrogen receptor (Homo sapiens); experiment: Induction of ERalpha degradation in human MCF7 cells assessed as decrease in ERalpha protein expression at 5 uM incubated for 24 hrs by Western blot analysis relative to control; format: cell-based; design: scale not given: the % may be the effect or the level left
[16] = Therapeutic index, ratio of IC50 for cytotoxicity against human MCF10A cells to IC50 for antiproliferative activity against human MCF7 cells; format: toxicity, cell-based; conditions: read-out: Ratio IC50
[17] = Volume of distribution at steady state in Sprague-Dawley rat at 3 mg/kg, iv administered via foot dorsal vein by LC-MS/MS analysis; format: ADME, organism-based; conditions: in vivo, read-out: Vdss
[18] = system: MCF7; experiment: Induction of apoptosis in human MCF7 cells assessed as late apoptotic cells at 1 uM incubated for 24 hrs by Annexin V-FITC/propidium iodide staining-based flow cytometric analysis (reference value: 8.73%); format: functional
[19] = system: MCF7; experiment: Induction of apoptosis in human MCF7 cells assessed as necrotic cells at 10 uM incubated for 24 hrs by Annexin V-FITC/propidium iodide staining-based flow cytometric analysis (reference value: 4.65%); format: functional
[20] = Tmax in Sprague-Dawley rat at 3 mg/kg, iv administered via foot dorsal vein by LC-MS/MS analysis; format: ADME, organism-based; conditions: in vivo
[21] = system: MCF7; experiment: Induction of apoptosis in human MCF7 cells assessed as early apoptotic cells at 5 uM incubated for 24 hrs by Annexin V-FITC/propidium iodide staining-based flow cytometric analysis (reference value: 1.26%); format: functional
[22] = Plasma clearance in Sprague-Dawley rat at 3 mg/kg, iv administered via foot dorsal vein by LC-MS/MS analysis; format: ADME, organism-based
[23] = biological target: T1, Estrogen receptor (Homo sapiens); experiment: Induction of ERalpha degradation in human MCF7 cells assessed as decrease in ERalpha protein expression at 1 uM incubated for 24 hrs by Western blot analysis relative to control; format: cell-based; design: scale not given: the % may be the effect or the level left
[24] = system: MCF-10A; experiment: Cytotoxicity against human MCF10A cell incubated for 72 hrs by MTT assay; format: cell-based
[25] = AUC (0 to infinity) in Sprague-Dawley rat at 3 mg/kg, iv administered via foot dorsal vein by LC-MS/MS analysis; format: ADME, organism-based; design: dose 3 mg/kg, route intravenous, time infinity; conditions: in vivo
[26] = system: MCF7; experiment: Induction of apoptosis in human MCF7 cells assessed as late apoptotic cells at 10 uM incubated for 24 hrs by Annexin V-FITC/propidium iodide staining-based flow cytometric analysis (reference value: 8.73%); format: functional
[27] = system: MCF7; experiment: Induction of apoptosis in human MCF7 cells assessed as early apoptotic cells at 1 uM incubated for 24 hrs by Annexin V-FITC/propidium iodide staining-based flow cytometric analysis (reference value: 1.26%); format: functional
[28] = biological target: T1, Estrogen receptor (Homo sapiens); experiment: Induction of ERalpha degradation in human MCF7 cells assessed as decrease in ERalpha protein expression at 10 uM incubated for 24 hrs by Western blot analysis; format: cell-based
[29] = biological target: T1, Estrogen receptor (Homo sapiens); experiment: Induction of ERalpha degradation in human MCF7 cells assessed as decrease in ERalpha protein expression at 0.1 to 10 uM incubated for 24 hrs by Western blot analysis; format: cell-based

Structure (SMILES): CCCCOc1ccc(C2=C(c3ccc(O)cc3)[C@H]3C[C@H](S(=O)(=O)N(CC(F)(F)F)c4ccc(OC)cc4)[C@@H]2O3)cc1 (relative stereo)
relative binding affinity (RBA) [2]: 2.11
relative binding affinity (RBA) [4]: 0.85
IC50 [11]: 3.02 µM
Activity [15]: 100%
selectivity ratio [16]: 23.1
IC50 [24]: 69.7 µM

Structure (SMILES): CCCCCOc1ccc(C2=C(c3ccc(O)cc3)[C@H]3C[C@H](S(=O)(=O)N(CC(F)(F)F)c4ccc(OC)cc4)[C@@H]2O3)cc1 (relative stereo)
relative binding affinity (RBA) [2]: 4.29
relative binding affinity (RBA) [4]: 0.04
IC50 [11]: 12.7 µM
Activity [15]: 100%
selectivity ratio [16]: 7.6
IC50 [24]: 97.3 µM

Structure (SMILES): CC(C)C[C@@H](C=O)NC(=O)[C@H](CC(C)C)NC(=O)[C@H](CC(C)C)NC(=O)OCc1ccccc1 (Cbz-Leu-Leu-Leu-aldehyde)
Activity [28]: inactive

Structure (SMILES): COc1ccc(N(CC(F)(F)F)S(=O)(=O)[C@H]2C[C@H]3O[C@@H]2C(c2ccc(O)cc2)=C3c2ccc(O)cc2)cc1 (relative stereo)
relative binding affinity (RBA) [2]: 0.74
relative binding affinity (RBA) [4]: 0.07
IC50 [11]: 9.84 µM
selectivity ratio [16]: 4.2
Activity [29]: Active
Activity [23]: Active
IC50 [24]: 41.7 µM

Further lines, with some results ahead:

Activity [1]: inactive
relative binding affinity (RBA) [2]: 3.11
relative binding affinity (RBA) [4]: 0.86
half-life [8]: 2.2 h
IC50 [11]: 0.77 µM
Activity [13]: Active
Cmax [14]: 964 ng/mL
Activity [15]: Active
Vd [17]: 10.7 L/kg
Tmax [20]: 4.8 min
clearance [22]: 105 mL/min/kg
Activity [23]: 100%
AUC(0-inf) [25]: 529 ng·h/mL
Structure (SMILES): CCCCCCOc1ccc(N(CC(F)(F)F)S(=O)(=O)[C@H]2C[C@H]3O[C@@H]2C(c2ccc(O)cc2)=C3c2ccc(O)cc2)cc1 (relative stereo)
Activity [3]: 40.85%
Activity [5]: 12.95%
Activity [6]: 65.96%
Activity [7]: 13.39%
Activity [9]: 1.34%
Activity [10]: 79.95%
Activity [12]: 9.24%
selectivity ratio [16]: 51
Activity [18]: 12.72%
Activity [19]: 1.88%
Activity [21]: 36.96%
IC50 [24]: 39.3 µM
Activity [26]: 18.77%
Activity [27]: 5.99%

relative binding affinity (RBA) [2]: 4.43
relative binding affinity (RBA) [4]: 0.08
IC50 [11]: 0.84 µM
Activity [15]: 100%
Structure (SMILES): CCCCCCOc1ccc(C2=C(c3ccc(O)cc3)[C@H]3O[C@@H]2C[C@@H]3S(=O)(=O)N(CC(F)(F)F)c2ccc(OC)cc2)cc1
selectivity ratio [16]: 50.4
IC50 [24]: 42.4 µM

relative binding affinity (RBA) [2]: 8.37
relative binding affinity (RBA) [4]: 0.01
IC50 [11]: 1.15 µM
Activity [15]: 100%
Structure (SMILES): CCCCCCOc1ccc(C2=C(c3ccc(O)cc3)[C@H]3C[C@H](S(=O)(=O)N(CC(F)(F)F)c4ccc(OC)cc4)[C@@H]2O3)cc1 (relative stereo)
selectivity ratio [16]: 33.9
IC50 [24]: 39 µM

relative binding affinity (RBA) [2]: 2.02
relative binding affinity (RBA) [4]: 0.12
IC50 [11]: 4.14 µM
Activity [15]: Active
Structure (SMILES): CCCCCCOc1ccc(N(C)S(=O)(=O)[C@H]2C[C@H]3O[C@@H]2C(c2ccc(O)cc2)=C3c2ccc(O)cc2)cc1 (relative stereo)
selectivity ratio [16]: 7.3
IC50 [24]: 30.4 µM
